#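 Briefly, cells in 96-well plates were exposed to five compound concentrations for 48 h, and endpoints were estimated by linear interpolation. TGI denotes the concentration required for complete inhibition of growth.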
# Columns and labels:
# Assay in all cases: inhibition of tumour cell growth, NCI panel, 48 h
# [1] = system: T-47D breast
# [2] = system: NCI/ADR-RES ovarian
# [3] = system: EKVX NSCLC
# [4] = system: SR leukemia
# [5] = system: NCI-H23 lung
# [6] = system: M14 melanoma
# [7] = system: MDA-N
# [8] = system: HT29 colon
# [9] = system: SF-539 CNS
# [10] = system: LOX IMVI melanoma
# [11] = system: NCI-H226 lung
# [12] = system: SK-MEL-5 melanoma
# [13] = system: HCC-2998 colon
# [14] = system: OVCAR-3 ovarian
# [15] = system: COLO 205 colon
# [16] = system: MCF7 breast
# [17] = system: HS 578T breast
# [18] = system: SK-OV-3 ovarian
# [19] = system: KM12 colon
# [20] = system: HCT-15 colon
# [21] = system: OVCAR-5 ovarian
# [22] = system: CAKI-1 renal
# [23] = system: PC-3 prostate
# [24] = system: UACC-257 melanoma
# [25] = system: RPMI-8226 leukemia
# [26] = system: DU-145 prostate
# [27] = system: K-562 leukemia
# [28] = system: IGROV1 ovarian
# [29] = system: SF-295 CNS
# [30] = system: SNB-75 CNS
# [31] = system: OVCAR-8 ovarian
# [32] = system: HL-60(TB) leukemia
# [33] = system: MALME-3M melanoma
# [34] = system: SW-620 colon
# [35] = system: MDA-MB-231 breast
# [36] = system: A549 NSCLC
# [37] = system: NCI-H460 lung
# [38] = system: HOP-92 NSCLC
# [39] = system: A498 renal
# [40] = system: MOLT-4 leukemia
# [41] = system: MDA-MB-435
# [42] = system: SK-MEL-28 melanoma
# [43] = system: HCT-116 colon
# [44] = system: SK-MEL-2 melanoma
# [45] = system: RXF 393 renal
# [46] = system: UACC-62 melanoma
# [47] = system: OVCAR-4 ovarian
# [48] = system: CCRF-CEM leukemia
# [49] = system: TK-10 renal
# [50] = system: 786-0 renal
# [51] = system: ACHN renal
# [52] = system: U251 CNS
# [53] = system: NCI-H522 lung
# [54] = system: UO-31 renal
# [55] = system: SF-268 CNS
# [56] = system: BT-549 breast
# [57] = system: SNB-19 CNS
# [58] = system: SN12C renal
# [59] = system: HOP-62 NSCLC
compound,measurement,setting,value
O/N=C(\CC(O)(C(F)(F)F)C(F)(F)F)c1cccc(Cl)c1,TGI,[1],79.7 µM
same,TGI,[2],> 100 µM
same,TGI,[3],67.6 µM
same,TGI,[4],> 100 µM
same,TGI,[5],49.2 µM
same,TGI,[6],62.7 µM
same,TGI,[7],> 100 µM
same,TGI,[8],> 100 µM
same,TGI,[9],85.9 µM
same,TGI,[10],62.5 µM
same,TGI,[11],60.2 µM
same,TGI,[12],31.6 µM
same,TGI,[13],> 100 µM
same,TGI,[14],49.4 µM
same,TGI,[15],> 100 µM
same,TGI,[16],> 100 µM
same,TGI,[17],53 µM
same,TGI,[18],58.5 µM
same,TGI,[19],> 100 µM
same,TGI,[20],> 100 µM
same,TGI,[21],> 100 µM
same,TGI,[22],68.7 µM
same,TGI,[23],83.3 µM
same,TGI,[24],> 100 µM
same,TGI,[25],> 100 µM
same,TGI,[26],> 100 µM
same,TGI,[27],> 100 µM
same,TGI,[28],84.4 µM
same,TGI,[29],> 100 µM
same,TGI,[30],57.6 µM
same,TGI,[31],> 100 µM
same,TGI,[32],82.2 µM
same,TGI,[33],> 100 µM
same,TGI,[34],> 100 µM
same,TGI,[35],56.9 µM
same,TGI,[36],> 100 µM
same,TGI,[37],> 100 µM
same,TGI,[38],56.6 µM
same,TGI,[39],> 100 µM
same,TGI,[40],38.8 µM
same,TGI,[41],85.9 µM
same,TGI,[42],> 100 µM
same,TGI,[43],> 100 µM
same,TGI,[44],63.5 µM
same,TGI,[45],46.5 µM
same,TGI,[46],> 100 µM
same,TGI,[47],> 100 µM
same,TGI,[48],47.4 µM
same,TGI,[49],98.8 µM
same,TGI,[50],> 100 µM
same,TGI,[51],65.9 µM
same,TGI,[52],49 µM
same,TGI,[53],> 100 µM
NCCSCc1ccccc1Cl,TGI,[1],> 100 µM
same,TGI,[54],> 100 µM
same,TGI,[2],> 100 µM
same,TGI,[3],> 100 µM
same,TGI,[4],55.7 µM
same,TGI,[5],95 µM
same,TGI,[6],> 100 µM
same,TGI,[7],> 100 µM
same,TGI,[8],> 100 µM
same,TGI,[10],66.1 µM
same,TGI,[11],> 100 µM
same,TGI,[55],> 100 µM
same,TGI,[12],> 100 µM
same,TGI,[13],38.7 µM
same,TGI,[14],82.9 µM
same,TGI,[17],> 100 µM
same,TGI,[19],> 100 µM
same,TGI,[20],> 100 µM
same,TGI,[21],> 100 µM
same,TGI,[56],> 100 µM
same,TGI,[22],> 100 µM
same,TGI,[23],93.8 µM
same,TGI,[24],51.9 µM
same,TGI,[57],> 100 µM
same,TGI,[26],> 100 µM
same,TGI,[27],76.6 µM
same,TGI,[28],> 100 µM
same,TGI,[29],> 100 µM
same,TGI,[30],> 100 µM
same,TGI,[31],> 100 µM
same,TGI,[33],> 100 µM
same,TGI,[34],> 100 µM
same,TGI,[35],> 100 µM
same,TGI,[36],> 100 µM
same,TGI,[37],> 100 µM
same,TGI,[38],> 100 µM
same,TGI,[39],96.2 µM
same,TGI,[40],86.3 µM
same,TGI,[41],> 100 µM
same,TGI,[42],> 100 µM
same,TGI,[43],> 100 µM
same,TGI,[44],87.5 µM
same,TGI,[45],> 100 µM
same,TGI,[46],> 100 µM
same,TGI,[58],> 100 µM
same,TGI,[47],> 100 µM
same,TGI,[48],78.8 µM
same,TGI,[49],74 µM
same,TGI,[50],> 100 µM
same,TGI,[51],> 100 µM
same,TGI,[52],> 100 µM
same,TGI,[53],> 100 µM
same,TGI,[59],> 100 µM
O=C1NC(N2CCCCC2)=N/C1=C\c1ccccc1O,TGI,[1],> 100 µM
same,TGI,[54],> 100 µM
same,TGI,[2],> 100 µM
same,TGI,[3],> 100 µM
same,TGI,[5],> 100 µM
same,TGI,[6],> 100 µM
same,TGI,[7],> 100 µM
same,TGI,[8],> 100 µM
same,TGI,[9],> 100 µM
same,TGI,[10],> 100 µM
same,TGI,[11],> 100 µM
same,TGI,[55],> 100 µM
same,TGI,[12],> 100 µM
same,TGI,[14],> 100 µM
same,TGI,[15],> 100 µM
same,TGI,[16],> 100 µM
same,TGI,[17],> 100 µM
same,TGI,[18],> 100 µM
same,TGI,[19],> 100 µM
same,TGI,[20],> 100 µM
same,TGI,[21],> 100 µM
same,TGI,[22],> 100 µM
same,TGI,[23],> 100 µM
same,TGI,[24],> 100 µM
same,TGI,[25],> 100 µM
same,TGI,[57],> 100 µM
same,TGI,[26],> 100 µM
same,TGI,[27],> 100 µM
same,TGI,[28],> 100 µM
same,TGI,[29],> 100 µM
same,TGI,[30],> 100 µM
same,TGI,[31],> 100 µM
same,TGI,[32],> 100 µM
same,TGI,[33],> 100 µM
same,TGI,[34],> 100 µM
same,TGI,[35],> 100 µM
same,TGI,[36],> 100 µM
same,TGI,[38],> 100 µM
same,TGI,[39],> 100 µM
same,TGI,[40],> 100 µM
same,TGI,[41],> 100 µM
same,TGI,[42],> 100 µM
same,TGI,[43],> 100 µM
same,TGI,[44],> 100 µM
same,TGI,[45],> 100 µM
same,TGI,[58],> 100 µM
same,TGI,[47],91.4 µM
same,TGI,[48],> 100 µM
same,TGI,[49],> 100 µM
same,TGI,[50],> 100 µM
same,TGI,[51],> 100 µM
same,TGI,[52],> 100 µM
same,TGI,[53],> 100 µM
same,TGI,[59],> 100 µM
CC(C)(C)OC(=O)c1ccc(NCC2=CC(=O)C=CC2=O)cc1,TGI,[54],19.7 µM
same,TGI,[2],28.2 µM
same,TGI,[3],28.8 µM
same,TGI,[4],> 23.1 µM
same,TGI,[5],22.2 µM
same,TGI,[6],17.6 µM
same,TGI,[7],25.3 µM
same,TGI,[8],35 µM
same,TGI,[9],12.7 µM
same,TGI,[10],22.6 µM
same,TGI,[11],40.5 µM
same,TGI,[55],24.3 µM
same,TGI,[12],29 µM
same,TGI,[13],36.6 µM
same,TGI,[14],16.1 µM
same,TGI,[15],7.21 µM
same,TGI,[16],12.3 µM
same,TGI,[17],46 µM
same,TGI,[18],41.6 µM
same,TGI,[19],29.6 µM
same,TGI,[20],20.5 µM
same,TGI,[21],32.5 µM
same,TGI,[56],29.5 µM
same,TGI,[22],3.39 µM
same,TGI,[23],24.4 µM
same,TGI,[24],24.9 µM
same,TGI,[25],> 27.1 µM
same,TGI,[57],31.4 µM
same,TGI,[26],31.6 µM
same,TGI,[27],> 100 µM
same,TGI,[28],23.9 µM
same,TGI,[29],50.5 µM
same,TGI,[30],24.3 µM
same,TGI,[31],26.9 µM
same,TGI,[32],3.29 µM
same,TGI,[33],9.82 µM
same,TGI,[34],22.6 µM
same,TGI,[35],21.6 µM
same,TGI,[36],40.1 µM
same,TGI,[37],> 59.5 µM
same,TGI,[38],4.4 µM
same,TGI,[39],30.9 µM
same,TGI,[40],4.38 µM
same,TGI,[41],25.9 µM
same,TGI,[42],29.2 µM
same,TGI,[43],26.2 µM
same,TGI,[44],31.8 µM
same,TGI,[45],23.6 µM
same,TGI,[46],26 µM
same,TGI,[58],23.8 µM
same,TGI,[47],22 µM
same,TGI,[48],5.35 µM
same,TGI,[49],21.3 µM
same,TGI,[50],22 µM
same,TGI,[51],22.2 µM
same,TGI,[52],27.1 µM
same,TGI,[53],3.1 µM
same,TGI,[59],> 61.8 µM

# From PubChem BioAssay (NCI)
